Measured values taken from patent US20060206946A1, “Method of disrupting heme transport in nematodes and of modelling and evaluating eukaryotic heme transport” (priority 2005, published 2006).
“Also recorded” adds a separate entry of the source.

How the values were obtained:
Experiment in all cases: Growth of heme resistant mutant in CeHR medium
Format in all cases: in vivo, Caenorhabditis elegans
C. elegans mutant IH828 = system: C. elegans mutant IH828
Procedure: (§1) To further increase the stringency of our genetic screen we split the contents from each 800 μM hemin selection flasks into two flasks containing either 800 μM or 1000 μM hemin. This allowed us to use another tier of positive selection to identify mutants with greater resistance to heme toxicity. Mutants from each flask were isolated and treated as a separate entity by giving an identification number based on the Genetic Nomenclature Guidelines used for C. elegans (http://biosci.umn.edu/CGC/Nomenclature/nomenguid.htm). To eliminate EMS-induced spurious mutations that could result in false positive, the mutants were outcrossed to wild-type N2 males. After five outcrosses, which replaces ˜97% of the mutant genome, mutants that bred true were selected for further analysis. Using this procedure, we isolated 13 individual mutants that were resistant to heme toxicity. These mutants were further characterized by analyzing Mendelian segregation ratios, X-linkage, phenotype penetrance, generation times, brood size, and their ability to grow under low hemin. […] This observation was surprising because we anticipated that high heme-resistant mutants will grow poorly under low heme. Based on the mutant's growth profile at low and high heme levels, we broadly categorized them into three phenotypic classes: class A, class B and class C (FIG. 13). These “phenoclusters” have the following growth phenotype: (a) three mutants IH728, IH938, IH731 show with robust growth under low and high (≧800 μM heme (FIG. 13B), (b) one mutant IH828 show exceptional growth under low heme, moderate growth at ≦800 μM heme, and no growth at 1000 μM hemin (FIG. 13C), and (c) six mutants IH921, IH11058, IH1068n, IH1068d, IH1048, and IH718 that show moderate growth under high heme (≦800 μM), but normal growth under low heme (FIG. 13D). By classifying these mutants into phenoclusters, we can focus our efforts on the phenotypic datasets to map the molecular networks and pathways involved in heme dependent processes. For instance, mutants in a cluster may have mutations within the same gene or in multiple genes but within the same pathway.
(§2) Worm Culture and Growth Assays. Free-living worms were cultured in CeHR axenic liquid medium (Dr. Eric Clegg, Personal Communication). […] CeHR medium was modified (henceforth called mCeHR) to eliminate all sources of exogenously added heme; basal growth medium comprised 20 μM hemin chloride (Frontier Scientific, Logan, Utah) and 150 μM of ferrous ammonium sulfate (Sigma Chemicals). Worm strains were grown in mCeHR medium under aerobic conditions in tissue culture flasks at 20° C. ˜3.7×10^6 worms were routinely obtained after 3.5 to 4 days in a T75 flask with 30 ml basal medium from an initial inoculum of −1.5×10^5 worms. For initial culturing of worms in axenic media, three generations of worms were sequentially bleached (1.1% bleach/0.55 M NaOH) to eliminate any contaminating bacterial carryover from agar plates. In all dose-response experiments, worms were growth synchronized by treating the gravid hermaphrodite worms with bleach to dissolve adult worms. The eggs, resistant to bleach, were liberated from the carcasses and extensively washed with M9 buffer followed by overnight hatching in M9 buffer to synchronize growth. By harvesting at appropriate time intervals, synchronous larval stages and adult staged worms were collected for experimental manipulations. Identical numbers of synchronized L1 larvae were inoculated into media with different heme concentrations in 12- or 24-well culture plates. Worm growth was monitored each day and an aliquot was obtained for counting by microscopy usually at days 3, 6, and 9. The worms in each well were counted twice and each growth condition was analyzed in triplicate. P values for statistical significance were calculated utilizing a one-way ANOVA with Student-Newman-Keuls multiple comparison test using GraphPad Instat version 3.01. […]

C. elegans mutant IH731 = system: C. elegans mutant IH731
Procedure: as §1, §2

C. elegans mutant IH938 = system: C. elegans mutant IH938
Procedure: as §1, §2

C. elegans mutant IH728 = system: C. elegans mutant IH728
Procedure: as §1, §2

[1] = 20 μM hemin, average in 24 well plates

For hemin chloride, the “resistance of IH828” value (C. elegans mutant IH828; 800 μM hemin) was “moderately resistant”, the “growth of IH828” value (C. elegans mutant IH828; 1000 μM hemin) was “no growth; also recorded: does not grow” and the “Generation time (Days) 20 μM” value (C. elegans mutant IH828; IH828, 20 μM hemin) was 3.5 days. The “brood size 20 μM” value (C. elegans mutant IH828; IH828, 20 μM hemin, average in 24 well plates) was 67, the “Generation time (Days) 800 μM” value (C. elegans mutant IH828; IH828, 800 μM hemin) was 4 days and the “Generation time (Days) 20 μM” value (C. elegans mutant IH731; 20 μM hemin) was 3.5 days. For the same substance, the “brood size 20 μM” value (C. elegans mutant IH731; [1]) was 53, the “Generation time (Days) 800 μM” value (C. elegans mutant IH731; 800 μM hemin) was 4 days and the “Generation time (Days) 20 μM” value (C. elegans mutant IH938; 20 μM hemin) was 3.5 days. The “brood size 20 μM” value (C. elegans mutant IH938; [1]) was 72, the “Generation time (Days) 800 μM” value (C. elegans mutant IH938; 800 μM hemin) was 4 days and the “Generation time (Days) 20 μM” value (C. elegans mutant IH728; 20 μM hemin) was 3.5 days. For the same substance, the “brood size 20 μM” value (C. elegans mutant IH728; [1]) was 53 and the “Generation time (Days) 800 μM” value (C. elegans mutant IH728; 800 μM hemin) was 4 days.
